From article PMC8448162, “Single- and Multiple-Ascending-Dose Study of the Safety, Tolerability, and Pharmacokinetics of the Polymyxin Derivative SPR206” (Antimicrobial Agents and Chemotherapy, 2021)
Positions of bridges follow the written chain, without caps; N, C: chain ends. Non-standard residues stand in square brackets, D forms with d. Residues, ends and D or L forms follow the SMILES beside them. *: point of attachment. X1 = NC[C@@H](CC(=O)*)c1cccc(Cl)c1; Dab = NCC[C@H](N)C(=O)O; Dap = NC[C@H](N)C(=O)O

Legend:
[1] = human; cited from earlier work
healthy subjects = assay: Safety and tolerability (adverse events, laboratory tests, ECG), first-in-human SAD/MAD study, 1-h i.v. infusion; format: in vivo
Method: This was a single-center, phase 1, randomized, double-blind, placebo-controlled, first-in-human study to assess the safety, tolerability, and PK of SPR206 following SAD and MAD administrations (Fig. 7). In the SAD phase, subjects received a single i.v. dose of SPR206, and in the MAD phase, subjects received i.v. doses of SPR206 every 8 h (q8h) over a period of 7 to 14 days. SPR206 was administered as a 1 h i.v. infusion.
In the SAD phase, healthy subjects were screened within 28 days prior to dosing and admitted to the clinical facility on day −1. A single i.v. dose of SPR206 or placebo was administered on day 1. Following completion of all safety assessments and sampling for PK analyses, subjects were discharged on day 2. A follow-up visit occurred 5 to 7 days after day 1 dosing.
In the SAD phase, subjects were randomized to one of seven cohorts consisting of 10-, 25-, 50-, 100-, 200-, 300-, and 400-mg doses of SPR206. Within each cohort, two subjects received placebo and six subjects received SPR206. Two subjects (sentinels) were dosed with SPR206 or placebo 48 h prior to the remaining subjects. The remaining six subjects were only dosed after no safety concerns were identified in the sentinel subjects. After each dose cohort had completed study drug dosing and safety evaluations, a safety monitoring group (SMG) reviewed blinded cumulative safety data (including day 5 to 7 follow-up data) to confirm the safety and tolerability of SPR206. Blood and urine samples were collected for assessment of PK parameters.
In the MAD phase, all subjects were admitted to the clinical facility on day −1. Dosing commenced on the morning of day 1. Three doses were administered daily at approximately 8 (±0.5)-hour intervals for a total of 7 consecutive days (cohorts 9 through 12) and 14 consecutive days (cohort 13). The last dose was administered on the morning of day 14. Subjects were discharged on day 16 following completion of all PK sample collection and safety assessments, and a follow-up visit occurred 12 to 14 days after the last dose.
The MAD phase began after completion of the SAD phase, and the appropriate starting dose level was established. Two subjects received placebo, and six subjects received SPR206 doses of 25, 50, 100, and 150 mg q8h for 7 days and 100 mg q8h for 14 days. In each cohort of the MAD, two subjects (sentinels) began dosing with SPR206 or placebo 72 h prior to the remaining subjects in this cohort. The remaining six subjects were only dosed after no safety concerns were identified by the principal investigator. After each MAD dose cohort had completed administration of study drug and all evaluations, the safety monitoring group reviewed blinded cumulative safety data (including the day 19 to 21 follow-up data) to confirm the safety and tolerability of the study drug. Blood and urine samples were collected to measure SPR206 drug levels to determine SPR206 PK parameters.
Safety assessments included clinical laboratory testing (hematology, coagulation, serum chemistry, urinalysis), vital signs (blood pressure, heart rate, body temperature, respiratory rate), physical examination, and triplicate 12-lead ECG to assess corrected QT interval by Fredericia (QTcF). In the SAD phase, continuous cardiac monitoring was performed from 1 h predose through 24 h postdose. Adverse events were recorded at each study visit.
Serum creatinine concentrations were measured from the clinical laboratory tests performed on days −1 and 15. Urine creatinine concentration were measured using 24 h collections prior to the first dose on day 1 and over 24 to 48 h following the start of infusion of the last dose (day 14).

[2] = format: in vitro ADME
Method: In the MAD phase, plasma samples for PK analysis were collected (i) on day 1—pre-dose and at 30, 60, 75, 90, 105, 120, and 150 min and at 3, 5, and 8 h following start of the first infusion; (ii) prior to the morning dose (within 10 min) on days 2, 3, 5, 7, 9, 11, and 13; and (iii) predose and 30, 75, 90, 105, 120, and 150 min and 3, 5, 8, and 12 h (day 14), 24, 36 (day 15), and 48 h (day 16) following start of the last infusion. Urine was collected for PK assessment on day 1 predose, over the intervals 0 to 4 h and 4 to 8 h after start of first infusion, and on days 14 and 15 over the intervals 0 to 4 h, 4 to 8 h, 8 to 12 h, and 12 to 24 h after start of day 14 infusion. Total 24-h urine for calculating CrCl was collected from the morning of day −1 to predose on day 1 and on days 15 and 16 over the interval from 24 to 48 h after the start of the day 14 infusion. Urine creatinine concentrations were measured using 24-h collections prior to the first dose on day 1 and over the 24 to 48 h following start of infusion of the last dose (day 14). Plasma and urine samples for SPR206 levels were analyzed using a validated liquid chromatography-tandem mass spectrometry (LC-MS/MS) method. The assay range for SPR206 was 50 to 5,000 ng/ml in plasma and 100 to 50,000 ng/ml in urine. […]

[3] = in vivo; cited from earlier work
kidney cell = conditions: cited from earlier work
kidney = conditions: mouse, in vivo; cited from earlier work
[4] = rat, in vivo; cited from earlier work
[5] = MAD, 25 mg q8h × 7 days (n = 6)
[6] = MAD, 50 mg q8h × 7 days (n = 6)
[7] = MAD, 100 mg q8h × 7 days (n = 6)
[8] = MAD, 100 mg q8h × 14 days (n = 6)
[9] = MAD, 150 mg q8h × 7 days (n = 6)
[10] = SAD, single i.v. dose 10 mg (n = 6)
[11] = SAD, single i.v. dose 50 mg (n = 6)
[12] = SAD, single i.v. dose 100 mg (n = 6)
[13] = SAD, single i.v. dose 200 mg (n = 6)
[14] = SAD, single i.v. dose 400 mg (n = 6)

For CC(C)C[C@@H]1NC(=O)[C@@H](Cc2ccccc2)NC(=O)[C@H](CCN)NC(=O)[C@@H](NC(=O)[C@H](CN)NC(=O)[C@@H](NC(=O)C[C@H](CN)c2cccc(Cl)c2)[C@@H](C)O)CCNC(=O)[C@H]([C@@H](C)O)NC(=O)[C@H](CCN)NC(=O)[C@H](CCN)NC1=O [SPR206] (X1-T[Dap][Dab][Dab][dF]L[Dab][Dab]T; lactam 3-C (inferred)), the protein binding [1] is given as less than 21%, the “At least one treatment-related adverse event” value (healthy subjects; [5]) is given as 1 (16.7) No. (%) of subjects and the “TEAE Infusion site phlebitis” value (healthy subjects; [5]) is given as 0 No. (%) of subjects. The “TEAE Headache” value (healthy subjects; [6]) was 2 (33.3) No. (%) of subjects, the “TEAE Infusion site phlebitis” value (healthy subjects; [6]) was 1 (16.7) No. (%) of subjects and the “TEAE Paresthesia oral” value (healthy subjects; [6]) was 2 (33.3) No. (%) of subjects. The “TEAE Headache” value (healthy subjects; [7]) was 2 (33.3) No. (%) of subjects, the “TEAE Infusion site phlebitis” value (healthy subjects; [7]) was 1 (16.7) No. (%) of subjects and the “TEAE Paresthesia oral” value (healthy subjects; [7]) was 1 (16.7) No. (%) of subjects. The “TEAE Dizziness” value (healthy subjects; [8]) was 2 (33.3) No. (%) of subjects, the “TEAE Headache” value (healthy subjects; [8]) was 1 (16.7) No. (%) of subjects and the “TEAE Infusion site phlebitis” value (healthy subjects; [8]) was 1 (16.7) No. (%) of subjects. For the same compound, the “TEAE Paresthesia oral” value (healthy subjects; [8]) was 1 (16.7) No. (%) of subjects, the “TEAE Constipation” value (healthy subjects; [9]) was 1 (16.7) No. (%) of subjects and the “TEAE Dry mouth” value (healthy subjects; [9]) was 2 (33.3) No. (%) of subjects. The “TEAE Infusion site phlebitis” value (healthy subjects; [9]) was 2 (33.3) No. (%) of subjects, the “TEAE Paresthesia oral” value (healthy subjects; [9]) was 2 (33.3) No. (%) of subjects and the “TEAE leading to drug withdrawal” value (healthy subjects; [9]) was 2 (33.3) No. (%) of subjects. The “At least one treatment-emergent adverse event” value (healthy subjects; [10]) was 1 (16.7) No. (%) of subjects, the “At least one treatment-related adverse event” value (healthy subjects; [10]) was 1 (16.7) No. (%) of subjects and the “At least one treatment-emergent adverse event” value (healthy subjects; [11]) was 1 (16.7) No. (%) of subjects. The “At least one treatment-related adverse event” value (healthy subjects; [11]) was 1 (16.7) No. (%) of subjects, the “At least one treatment-emergent adverse event” value (healthy subjects; [12]) was 1 (16.7) No. (%) of subjects and the “At least one treatment-related adverse event” value (healthy subjects; [12]) was 1 (16.7) No. (%) of subjects. The “At least one treatment-emergent adverse event” value (healthy subjects; [13]) was 2 (33.3) No. (%) of subjects, the “At least one treatment-related adverse event” value (healthy subjects; [13]) was 2 (33.3) No. (%) of subjects and the “TEAE Diarrhea” value (healthy subjects; [14]) was 2 (33.3) No. (%) of subjects. The “TEAE Fatigue” value (healthy subjects; [14]) was 2 (33.3) No. (%) of subjects, the “TEAE Paresthesia” value (healthy subjects; [14]) was 1 (16.7) No. (%) of subjects and the “effect on renal function (serum creatinine and creatinine clearance)” value (healthy subjects; human, in vivo) was “no clinically significant effect on renal function”. For the same compound, the “AEs of mild severity” value (healthy subjects; in vivo) was 84 % of all AEs, the “changes in vital signs, physical examination, or ECG parameters” value (healthy subjects; in vivo) was “no clinically significant changes” and the “effect on liver function” value (healthy subjects; in vivo) was “no clinically significant effect on liver function”. The “effect on the ECG” value (healthy subjects; in vivo) was “no effect on the ECG”, the “serious AEs” value (healthy subjects; in vivo) was “No serious AEs” and the “severe AEs” value (healthy subjects; in vivo) was “no severe AEs”. For the same compound, the “subjects with paresthesia events considered nervous system disorders” value (healthy subjects; in vivo) was 7.4%, the stability in urine [2] was 147 h and the stability in plasma ([2]; plasma) was 194 h. The “accumulation after repeat dosing” value [3] was “no apparent accumulation”, the “kidney cell cytotoxicity compared with PMB” value (kidney cell) was “lower kidney cell cytotoxicity” and the “histopathological changes in the kidney” value (kidney) was “no histopathological changes in the kidney”. The “exposure in the kidney compared with PMB” value [4] was “lower exposure in the kidney of rats”.
